Literature values as cited in patent publication US12133854B2 (SLAYBACK PHARMA LLC, priority 2021, dated 2024).
In brackets after ≈: the same amount, converted by molar mass. Entries after “also recorded” stand apart in the source; their conditions may differ. Like-named read-outs stand apart in the source and are kept apart here.

Solubility in methanol, chloroform and acetone: very soluble
Solubility (above pH 2.5): less than 1 mg/mL
Solubility (in acid, pH 1.5): ~25 mg/mL (≈ 58.2 mM)
Compound: CC#C[C@]1(O)CC[C@H]2[C@@H]3CCC4=CC(=O)CCC4=C3[C@@H](c3ccc(N(C)C)cc3)C[C@@]21C [Mifepristone, 11β-(4-dimethylaminophenyl)-17β-hydroxy-17α-(1-propynyl)-estra-4,9-dien-3-one]
Solubility in water: practically insoluble; also recorded: low aqueous solubility
